Measured values taken from patent publication US10130590B2, “Methods of treating cancer with atovaquone-related compounds” (DANA-FARBER CANCER INSTITUTE, INC., priority 2013, dated 2018).

Key:
[1] = test system: STAT3; assay: STAT3-luc reporter cells, IL-6 stimulated luciferase; assay type: cell-based; details: 10, 20, 30, or 40 μM for 1 hour, then IL-6 (10 ng/ml) 5 hours; relative to controls
Method: (§1) Western blotting was performed as previously described (Battle T E, Arbiser J, & Frank D A (2005) The natural product honokiol induces caspase dependent apoptosis in B-cell chronic lymphocytic leukemia (B-CLL) cells. Blood 106(2):690-697). Antibodies to phospho-MAPK (9101), total MAPK (9102), phospho-Y705 STAT3 (9131), phospho-S6 (2215), total S6 (2217), phospho-4E-BP1 (9451), total 4E-BP1 (9644), total RSK (9355), phospho-S6K (9234, 85 used at 1:5000), total S6K (2708), phospho-eIF2α (9721, used at 1:1000), total eIF2α (5324), ATF4 (11815, used at 1:1000), PDGFRβ (3169), IGF1Rβ (9750), EGFR (2232), and HER2 (2242) were from Cell Signaling Technology. Phospho-RSK antibody was from R&D (AF889). Antibodies to total STAT3 (sc-482) and gp130 (sc-656, used at 1:1000) were from Santa Cruz Biotechnology. Phospho-S727 STAT3 antibody was described previously (229). REDD1 antibody was from Proteintech (10638-1-AP, used at 1:1000). Antibody recognizing full-length and cleaved ATF6 was from Abcam (ab122897, used at 1:1000). Antibodies to tubulin (T5168) and beta actin (A5316) were from Sigma. All antibodies were used at 1:10000 dilution for western blot unless otherwise noted. For immunoprecipitations, cells were lysed in 500 μl lysis buffer (0.5% NP-40, 150 mM NaCl, 50 mM Tris pH 7.5, with protease and phosphatase inhibitors freshly added at 1:100 [Pierce, PI78443]) on ice for 15 minutes, then centrifuged for 10 minutes at 14,000 RPM and 4° C. The supernatant was transferred to a new tube and incubated with 10 μl JAK2 antibody (Santa Cruz sc-278) or a mix of two TYK2 antibodies, 10 μl of each (Santa Cruz sc-5271 and Cell Signaling Technology 9312). Immunoprecipitation was performed overnight at 4° C. with rotation. The next day, 75 μl of protein A/G beads (Santa Cruz sc-2003) were washed twice in lysis buffer, then incubated with immunoprecipitates overnight as before. The next day, the beads were spun down (1 min. at 7,500 RPM and 4° C.) and washed 3 times with 650 μl lysis buffer for 10 minutes at 4° C. with rotation, then boiled in 50 μl sample buffer+10% β-mercaptoethanol. For Western blot, 20 μl were loaded per lane. For detection of phospho-tyrosine, a mixture of two pan-phospho-tyrosine antibodies (Cell Signaling Technology 9411 and 9416, 1:1000 of each) was used. Antibody to phospho-Y1007/1008 JAK2 was from Cell Signaling 86 Technology (3771, used at 1:1000). Antibody to phospho-Y570 JAK2 was from Millipore (09-241, used at 1:1000). Luminometric Assays Luciferase reporter cell lines were described previously (186). Firefly luciferase values were normalized by concurrent cell viability. Cell viability was measured as ATP-dependent luminescence by Cell Titer Glo (Promega).
To determine if atovaquone inhibits STAT3, it was tested in a cell-based reporter system of STAT3 transcriptional activity (Nelson E A, et al. (2008) Nifuroxazide inhibits survival of multiple myeloma cells by directly inhibiting STAT3. Blood 112(13):5095-5102). These cells lack basal STAT3 activation; upon IL-6 treatment, STAT3 becomes activated and drives transcription of a STAT3-dependent luciferase reporter gene. […] Activity of firefly luciferase was measured and normalized by cell viability (Cell Titer Glo). […]
STAT3-luc reporter cells were pre-treated with atovaquone, buparvaquone or TDBHN (concentration 10, 20, 30, or 40 μM) for 1 hour, then stimulated with IL-6 (10 ng/ml) for 5 hours. The activity of firefly luciferase was measured and normalized by cell viability (Cell Titer Glo).

[2] = test system: mTOR pathway; assay: Western blot of mTOR pathway markers (S6, S6K, 4E-BP1); assay type: cell-based; details: U266, 2.5 hours; buparvaquone 12.5 or 25 μM, Sigma analog 1, 5, or 25 μM; relative to vehicle
Method: as §1
K562 cells were treated with atovaquone (20 μM) or rapamycin (10 nM) for 1 hour or 5 hours, then analyzed by Western blot. […] The requirement for prolonged treatment to observe mTOR inhibition raised the possibility that this effect was mediated by an induced factor. To test this hypothesis, cells were pretreated with cycloheximide, a protein synthesis inhibitor. K562 cells were pre-treated with vehicle or cycloheximide (2 μg/ml) for 1 hour, then treated with vehicle or atovaquone (20 μM) for 5 hours. […] Similar results were obtained with actinomycin D, an inhibitor of mRNA synthesis.
To evaluate the role of REDD1, RNA interference was used to knock down its expression in adherent SKBR3 cells, given the relative ease of introducing siRNA into these cells. SKBR3 cells were transfected with control or REDD1 siRNA for 48 hours, then treated with atovaquone (25 μM) for 4 hours.
Next, U266 cells were treated with 12.5 or 25 μM buparvaquone or 1, 5, or 25 μM 2-(4-(trans-decahydronaphth-2-yl)butyl)-3-hydroxy-1,4-naphthoquinone (Sigma analog), or DMSO vehicle control, for 2.5 hours, after which cells were harvested and immunoblots were performed with antibodies for total and phospho STAT3 and total and phospho S6.

[3] = test system: STAT3; assay: Western blot of STAT3 phosphorylation in reporter and cancer cell lines; assay type: cell-based, human; details: U266, 2.5 hours; for STAT3 phosphorylation (analogs): buparvaquone 12.5 or 25 μM, Sigma analog 1, 5, or 25 μM, relative to vehicle; for STAT3 phosphorylation with UPR activators: tunicamycin 5 μg/ml, thapsigargin 1 μM, brefeldin A 3 μg/ml
Method: as §1
The mechanism by which atovaquone inhibits STAT3 was investigated. STAT3-luc reporter cells were pre-treated with atovaquone (20 μM) for 1 hr, and then stimulated with IL-6 (10 ng/ml) for 15 minutes, 30 minutes, 1 hours, or 2 hours. Since STAT3 transcriptional activity is critically dependent on tyrosine phosphorylation, Western blotting was performed to see if atovaquone affected STAT3 phosphorylation. […] Next, atovaquone was used to treat U266 (2.5 hours), HEL (6 hours), or INA-6 cells (4 hours). […] In U266 and INA-6 cells, the source of STAT3 activation is JAK-dependent IL-6 signaling, while in HEL cells, STAT3 is activated by mutant JAK2-V617F. Given that atovaquone inhibits constitutive STAT3 activation in cancer cells, it was asked whether atovaquone inhibits expression of endogenous STAT3 target genes in this context.
Since atovaquone reduced gp130 expression at the cell surface, it was asked whether this effect was accompanied by reduced total gp130 in the cell. To address this question, a time course of atovaquone treatment was performed and total cellular gp130 was measured by Western blotting in U266 cells treated with atovaquone at 20 μM. […]

[4] = test system: gp130; assay: Flow cytometry of cell-surface gp130; assay type: cell-based; details: U266, 2.5 hours; atovaquone 20 μM, JAK inhibitor 1 1 μM, brefeldin A 3 μg/ml
Method: (§2) Annexin V/PI staining was performed using Annexin V:FITC Apoptosis Detection Kit I (BD Biosciences). Staining for cell cycle analysis was performed as previously described (267). Staining for cell-surface receptors was performed in 50 μl PBS+2% FBS with 2 μl antibody to IL6R (BioLegend #352803) or 5 μl antibody to gp130 (BD Biosciences #555757) for 20 minutes on ice in the dark. Cells were washed twice, then resuspended in 300 μl of the same buffer. Samples were analyzed on a BD FACSCanto II machine. Transfection and siRNA Cells were reverse-transfected using Lipofectamine RNAiMAX (Invitrogen); the culture medium was changed 24 hours later. Control siRNA (D-001210-02) and REDD1 siRNA (M-010855-01) were from Thermo Scientific Dharmacon.
Since atovaquone reduced gp130 expression at the cell surface, it was asked whether this effect was accompanied by reduced total gp130 in the cell. To address this question, a time course of atovaquone treatment was performed and total cellular gp130 was measured by Western blotting in U266 cells treated with atovaquone at 20 μM. […] Thus, it was surmised that atovaquone also rapidly downregulates cell-surface gp130, paralleling STAT3 inhibition and preceding the decrease in total gp130. […] Loss of cell-surface gp130 may be due to decreased entry into the plasma membrane or increased internalization. In either case, the decrease in total gp130 observed at longer time points is likely due to degradation of relatively unstable intracellular gp130.

[5] = test system: IL-6 receptor; assay: Flow cytometry of cell-surface IL-6 receptor; assay type: cell-based, human; details: U266, 2.5 hours; atovaquone 20 μM, brefeldin A 3 μg/ml
Method: as §2

Row | Compound | STAT-3 reporter gene expression [1] | S6 phosphorylation (analogs) [2] | STAT3 phosphorylation (analogs) [3] | cell-surface expression of gp130 [4] | STAT3 phosphorylation with UPR activators [3] | further results
1 | O=C1C(O)=C(CCCCC2CC[C@H]3CCCC[C@@H]3C2)C(=O)c2ccccc21 (relative stereo) [TDBHN, 2-(4-(trans-decahydronaphth-2-yl)butyl)-3-hydroxy-1,4-naphthoquinone] | inhibited STAT-3 reporter gene expression | inhibited STAT3 and S6 phosphorylation at all concentrations tested | inhibited STAT3 and S6 phosphorylation at all concentrations tested |  |  | 
2 | CC(C)(C)c1nc2c3cc[nH]c(=O)c3c3cc(F)ccc3c2[nH]1 [JAK inhibitor 1] |  |  |  | did not affect gp130 expression |  | 
3 | C/C=C(/C)C(=O)O[C@H]1C(C)=C2[C@H]([C@@H]1OC(=O)CCCCCCC)[C@@](C)(OC(C)=O)C[C@H](OC(=O)CCC)[C@@]1(O)[C@H]2OC(=O)[C@@]1(C)O [Thapsigargin] |  |  |  |  | only brefeldin A decreased STAT3 phosphorylation | 
4 | C[C@H]1CCC/C=C/[C@@H]2C[C@H](O)C[C@H]2[C@H](O)/C=C/C(=O)O1 [brefeldin A] |  |  |  | reduced the cell surface expression of both gp130 and IL-6 receptor | decreased STAT3 phosphorylation | cell-surface expression of IL-6 receptor [5]: reduced the cell surface expression of both gp130 and IL-6 receptor
5 | CC(C)(C)C1CCC(CC2=C(O)C(=O)c3ccccc3C2=O)CC1 (stereo not drawn) [buparvaquone, 2((4-tert-butylcyclohexyl)methyl)-3-hydroxy-1,4-naphthoquinone] | inhibited STAT-3 reporter gene expression | inhibited STAT3 and S6 phosphorylation at all concentrations tested | inhibited STAT3 and S6 phosphorylation at all concentrations tested |  |  | 
6 | Tunicamycin |  |  |  |  | only brefeldin A decreased STAT3 phosphorylation | 
